Laboratory results from the supplement of paper PMC12463676, “Small-molecule dissolution of stress granules by redox modulation benefits ALS models” (Nature Chemical Biology, 2025).
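Also: each temperature applied for 3 min, abundance score taken as mean log2 fold change at the two lowest temperatures, z-score obtained by mean subtraction and division by SD.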

Chain of UniProt Q9Y6D9 (Q9Y6D9 whole entry): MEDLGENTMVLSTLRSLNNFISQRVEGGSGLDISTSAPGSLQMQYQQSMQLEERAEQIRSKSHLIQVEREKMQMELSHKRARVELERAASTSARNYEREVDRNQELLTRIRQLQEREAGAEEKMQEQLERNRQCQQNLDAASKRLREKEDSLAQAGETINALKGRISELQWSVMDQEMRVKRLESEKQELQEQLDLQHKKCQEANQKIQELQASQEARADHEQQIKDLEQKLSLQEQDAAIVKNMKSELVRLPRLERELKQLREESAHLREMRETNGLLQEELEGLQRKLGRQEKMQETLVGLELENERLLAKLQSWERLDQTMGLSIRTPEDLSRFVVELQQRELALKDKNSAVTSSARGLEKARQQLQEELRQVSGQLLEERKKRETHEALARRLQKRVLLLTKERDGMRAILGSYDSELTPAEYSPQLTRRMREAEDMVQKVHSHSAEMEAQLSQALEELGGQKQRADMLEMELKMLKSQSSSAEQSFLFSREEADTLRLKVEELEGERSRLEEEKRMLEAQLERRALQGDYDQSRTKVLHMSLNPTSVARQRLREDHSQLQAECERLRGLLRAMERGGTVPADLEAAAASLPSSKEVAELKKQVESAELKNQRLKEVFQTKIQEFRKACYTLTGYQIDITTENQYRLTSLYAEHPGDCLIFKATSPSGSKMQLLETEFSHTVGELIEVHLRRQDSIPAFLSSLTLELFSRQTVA
Chain of UniProt Q9GZV5 (Q9GZV5 whole entry): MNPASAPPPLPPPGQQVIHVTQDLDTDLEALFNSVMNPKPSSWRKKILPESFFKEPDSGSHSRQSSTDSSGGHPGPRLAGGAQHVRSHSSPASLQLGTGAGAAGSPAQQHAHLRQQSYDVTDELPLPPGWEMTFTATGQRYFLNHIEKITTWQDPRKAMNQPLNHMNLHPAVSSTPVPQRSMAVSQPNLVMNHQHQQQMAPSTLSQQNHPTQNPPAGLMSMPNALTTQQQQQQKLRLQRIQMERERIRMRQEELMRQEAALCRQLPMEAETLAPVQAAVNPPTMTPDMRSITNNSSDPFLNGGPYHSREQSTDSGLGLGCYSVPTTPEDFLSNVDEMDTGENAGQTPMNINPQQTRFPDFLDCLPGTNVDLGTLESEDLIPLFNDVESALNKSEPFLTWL
Chain of UniProt P28070 (P28070 whole entry): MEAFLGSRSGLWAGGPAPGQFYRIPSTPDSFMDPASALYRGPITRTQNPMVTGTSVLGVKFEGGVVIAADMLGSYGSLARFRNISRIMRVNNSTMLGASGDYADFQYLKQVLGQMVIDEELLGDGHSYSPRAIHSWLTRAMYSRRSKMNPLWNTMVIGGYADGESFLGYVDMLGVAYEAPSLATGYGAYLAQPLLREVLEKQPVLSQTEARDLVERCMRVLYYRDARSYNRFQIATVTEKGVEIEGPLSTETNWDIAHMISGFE
Chain of UniProt Q92545 (Q92545 whole entry): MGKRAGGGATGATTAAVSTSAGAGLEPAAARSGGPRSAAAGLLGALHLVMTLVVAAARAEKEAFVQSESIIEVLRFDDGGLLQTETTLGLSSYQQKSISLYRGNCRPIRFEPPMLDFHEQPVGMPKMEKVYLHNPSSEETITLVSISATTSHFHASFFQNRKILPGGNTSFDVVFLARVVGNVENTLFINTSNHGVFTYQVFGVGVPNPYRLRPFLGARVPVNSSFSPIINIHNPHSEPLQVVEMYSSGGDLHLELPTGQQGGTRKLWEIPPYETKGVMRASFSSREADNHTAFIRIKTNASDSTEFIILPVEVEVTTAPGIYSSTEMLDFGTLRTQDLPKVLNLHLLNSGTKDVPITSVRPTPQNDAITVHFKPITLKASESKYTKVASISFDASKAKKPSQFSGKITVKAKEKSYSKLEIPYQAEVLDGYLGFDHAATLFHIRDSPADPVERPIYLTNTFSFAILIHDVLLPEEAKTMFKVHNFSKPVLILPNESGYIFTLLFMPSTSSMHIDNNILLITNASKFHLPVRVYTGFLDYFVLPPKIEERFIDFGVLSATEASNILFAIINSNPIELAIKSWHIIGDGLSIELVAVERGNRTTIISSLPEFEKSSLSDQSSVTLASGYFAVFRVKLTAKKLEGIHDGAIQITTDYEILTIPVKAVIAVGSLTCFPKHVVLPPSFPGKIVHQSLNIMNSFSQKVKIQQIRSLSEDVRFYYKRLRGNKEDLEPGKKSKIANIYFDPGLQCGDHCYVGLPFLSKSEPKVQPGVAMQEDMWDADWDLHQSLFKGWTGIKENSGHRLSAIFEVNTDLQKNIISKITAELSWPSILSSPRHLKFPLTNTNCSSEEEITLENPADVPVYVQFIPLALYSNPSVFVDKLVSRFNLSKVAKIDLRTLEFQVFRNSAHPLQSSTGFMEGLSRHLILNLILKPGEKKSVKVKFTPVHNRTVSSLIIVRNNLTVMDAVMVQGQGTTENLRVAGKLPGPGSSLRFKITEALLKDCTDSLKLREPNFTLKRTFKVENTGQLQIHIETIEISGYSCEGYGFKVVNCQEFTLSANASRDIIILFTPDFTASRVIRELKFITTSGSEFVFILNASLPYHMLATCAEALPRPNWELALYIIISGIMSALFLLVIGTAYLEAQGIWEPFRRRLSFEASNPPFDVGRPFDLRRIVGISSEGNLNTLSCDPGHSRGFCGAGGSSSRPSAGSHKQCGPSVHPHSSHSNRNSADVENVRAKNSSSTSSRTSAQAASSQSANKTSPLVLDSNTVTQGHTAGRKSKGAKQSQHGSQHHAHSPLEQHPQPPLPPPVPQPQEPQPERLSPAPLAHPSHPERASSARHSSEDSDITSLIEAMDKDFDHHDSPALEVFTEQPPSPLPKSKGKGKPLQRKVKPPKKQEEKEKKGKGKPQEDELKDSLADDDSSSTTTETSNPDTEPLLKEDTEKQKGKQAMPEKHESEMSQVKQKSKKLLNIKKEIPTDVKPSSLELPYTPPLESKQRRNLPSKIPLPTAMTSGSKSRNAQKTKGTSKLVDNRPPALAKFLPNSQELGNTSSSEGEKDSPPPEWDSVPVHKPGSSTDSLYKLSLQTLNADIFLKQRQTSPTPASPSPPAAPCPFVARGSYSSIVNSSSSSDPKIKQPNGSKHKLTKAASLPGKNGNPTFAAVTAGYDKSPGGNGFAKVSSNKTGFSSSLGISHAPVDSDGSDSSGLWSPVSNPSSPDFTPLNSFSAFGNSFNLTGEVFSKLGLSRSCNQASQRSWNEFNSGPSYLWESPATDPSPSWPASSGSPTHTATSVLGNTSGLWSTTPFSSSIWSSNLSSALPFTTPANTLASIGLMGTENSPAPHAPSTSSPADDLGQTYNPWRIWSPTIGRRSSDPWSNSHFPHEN
Chain of UniProt P33981 (P33981 whole entry): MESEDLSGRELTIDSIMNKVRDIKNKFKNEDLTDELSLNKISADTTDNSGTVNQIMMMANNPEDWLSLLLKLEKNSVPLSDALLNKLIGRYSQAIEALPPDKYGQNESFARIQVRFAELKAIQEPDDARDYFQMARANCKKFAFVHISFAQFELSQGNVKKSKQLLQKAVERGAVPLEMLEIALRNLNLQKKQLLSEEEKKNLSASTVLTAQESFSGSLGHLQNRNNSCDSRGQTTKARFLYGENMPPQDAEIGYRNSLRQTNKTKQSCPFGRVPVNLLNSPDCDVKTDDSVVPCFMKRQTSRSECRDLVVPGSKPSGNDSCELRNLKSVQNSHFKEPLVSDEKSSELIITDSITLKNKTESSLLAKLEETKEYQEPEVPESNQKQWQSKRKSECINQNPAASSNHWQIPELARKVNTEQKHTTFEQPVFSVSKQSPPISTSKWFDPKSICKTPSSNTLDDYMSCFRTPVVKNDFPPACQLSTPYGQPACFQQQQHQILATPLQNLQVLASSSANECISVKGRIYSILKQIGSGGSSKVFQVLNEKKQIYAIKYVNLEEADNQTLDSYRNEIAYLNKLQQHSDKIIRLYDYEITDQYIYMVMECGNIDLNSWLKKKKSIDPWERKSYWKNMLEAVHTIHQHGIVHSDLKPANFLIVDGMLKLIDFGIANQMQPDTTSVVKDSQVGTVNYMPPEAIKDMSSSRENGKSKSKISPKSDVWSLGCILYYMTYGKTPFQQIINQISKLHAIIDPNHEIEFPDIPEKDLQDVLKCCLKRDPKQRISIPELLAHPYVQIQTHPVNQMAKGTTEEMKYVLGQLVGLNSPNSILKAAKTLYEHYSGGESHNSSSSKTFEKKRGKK
Chain of UniProt Q9H269 (Q9H269 whole entry): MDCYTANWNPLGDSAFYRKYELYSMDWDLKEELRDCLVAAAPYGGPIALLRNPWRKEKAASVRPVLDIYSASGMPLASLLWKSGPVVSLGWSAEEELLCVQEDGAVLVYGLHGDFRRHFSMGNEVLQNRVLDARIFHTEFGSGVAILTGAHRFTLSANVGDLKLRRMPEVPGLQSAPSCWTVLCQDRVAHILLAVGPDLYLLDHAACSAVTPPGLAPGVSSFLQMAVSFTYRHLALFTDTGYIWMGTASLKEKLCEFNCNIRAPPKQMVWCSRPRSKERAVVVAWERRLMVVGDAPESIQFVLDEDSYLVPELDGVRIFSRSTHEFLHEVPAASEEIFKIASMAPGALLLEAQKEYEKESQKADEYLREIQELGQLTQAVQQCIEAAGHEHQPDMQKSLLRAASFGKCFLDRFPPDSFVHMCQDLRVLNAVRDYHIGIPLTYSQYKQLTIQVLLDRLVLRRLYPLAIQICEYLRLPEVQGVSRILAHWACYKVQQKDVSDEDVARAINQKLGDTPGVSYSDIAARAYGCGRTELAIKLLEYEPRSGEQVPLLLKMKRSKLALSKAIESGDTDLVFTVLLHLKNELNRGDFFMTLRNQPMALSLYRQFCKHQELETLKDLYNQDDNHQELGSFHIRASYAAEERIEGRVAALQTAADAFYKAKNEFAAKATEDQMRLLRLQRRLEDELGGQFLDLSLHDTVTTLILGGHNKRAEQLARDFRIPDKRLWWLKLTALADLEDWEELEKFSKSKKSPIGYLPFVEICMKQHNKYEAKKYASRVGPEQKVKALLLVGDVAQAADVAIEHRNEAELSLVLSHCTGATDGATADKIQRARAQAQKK
Chain of UniProt Q9NP97 (Q9NP97 whole entry): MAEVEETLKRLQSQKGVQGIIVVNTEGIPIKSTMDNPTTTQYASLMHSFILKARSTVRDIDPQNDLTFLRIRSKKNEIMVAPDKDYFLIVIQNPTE

What follows are targets tested with O=[As]([O-])(O)O.[K+] [potassium arsenate] (assay: thermal stability z-score vs DMSO; higher = more thermally stabilized by treatment). Conditions: HeLa; arsenate concentration 1 mM.
Experimental: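 Cellular thermal proteome profiling in HeLa cells treated with 1 mM arsenate for 1 h (DMSO pretreatment), heated to ten temperatures (37-66.3 °C). Soluble protein was quantified by TMT mass spectrometry relative to DMSO controls; the thermal stability score was transformed to a z-score; mean of n = 3 experiments.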
Target LAMB2 (UniProt P55268) has a thermal stability z-score of -0.248. With PSMB4 (UniProt P28070) the thermal stability z-score was 0.545. EIF3M (UniProt Q7L2H7) showed a thermal stability z-score of 0.304. DYNLRB1 (UniProt Q9NP97) showed a thermal stability z-score of 0.237. Work on NUFIP2 (UniProt Q7Z417) yielded a thermal stability z-score of 1.08. With PPM1L (UniProt Q5SGD2) the thermal stability z-score was -0.192. Work on RRM2B (UniProt Q7LG56) yielded a thermal stability z-score of -0.703. SMG5 (UniProt Q9UPR3) showed a thermal stability z-score of -0.104. For SLC19A1 (UniProt P41440), the thermal stability z-score was 0.0431. With GPN1 (UniProt Q9HCN4) the thermal stability z-score was 0.212. VPS16 (UniProt Q9H269) gave a thermal stability z-score of 1.02. Target THG1L (UniProt Q9NWX6) has a thermal stability z-score of 0.463. Target TMEM131 (UniProt Q92545) has a thermal stability z-score of 0.83. PHF14 (UniProt O94880) gave a thermal stability z-score of -0.242. Work on PLXNA1 (UniProt Q9UIW2) yielded a thermal stability z-score of -0.00413. Work on DPH5 (UniProt Q9H2P9) yielded a thermal stability z-score of -0.179. With H1FX (UniProt Q92522) the thermal stability z-score was -1.7. DXO (UniProt O77932) was tested, and the thermal stability z-score was 0.0286. In the case of FERMT2 (UniProt Q96AC1), the thermal stability z-score is reported as 0.203. Target WDR77 (UniProt Q9BQA1) has a thermal stability z-score of -0.717. Work on METTL21A (UniProt Q8WXB1) yielded a thermal stability z-score of 0.26. Target TRAPPC6B (UniProt Q86SZ2) has a thermal stability z-score of -0.511. In the case of HFE (UniProt Q30201), the thermal stability z-score is reported as 0.0645. With PARP12 (UniProt Q9H0J9) the thermal stability z-score was -0.282. LLPH (UniProt Q9BRT6) showed a thermal stability z-score of -2.48. TTK (UniProt P33981) was tested, and the thermal stability z-score was 0.742. DNAJC3 (UniProt Q13217) gave a thermal stability z-score of 0.823. IRF2BPL (UniProt Q9H1B7) showed a thermal stability z-score of -0.124. Work on WWTR1 (UniProt Q9GZV5) yielded a thermal stability z-score of 0.377. Target CASP1 (UniProt P29466) has a thermal stability z-score of -0.416. MAD1L1 (UniProt Q9Y6D9) gave a thermal stability z-score of 1.62. For HDAC7 (UniProt Q8WUI4), the thermal stability z-score was -0.534. KATNAL1 (UniProt Q9BW62) gave a thermal stability z-score of -0.0764. NAGK (UniProt Q9UJ70) gave a thermal stability z-score of -0.921. PDIA3 (UniProt P30101) was tested, and the thermal stability z-score was 0.907. Work on EWSR1 (UniProt Q01844) yielded a thermal stability z-score of -0.604. Target TTC17 (UniProt Q96AE7) has a thermal stability z-score of 0.453. In the case of TRIM56 (UniProt Q9BRZ2), the thermal stability z-score is reported as -3.98. CYFIP1 (UniProt Q7L576) showed a thermal stability z-score of -1.67. Target RAP2B (UniProt P61225) has a thermal stability z-score of -0.0313. Work on NQO1 (UniProt P15559) yielded a thermal stability z-score of 0.174. POP1 (UniProt Q99575) gave a thermal stability z-score of -0.401. With PPIE (UniProt Q9UNP9) the thermal stability z-score was 0.128. Target N4BP1 (UniProt O75113) has a thermal stability z-score of -0.0968. Work on XPO1 (UniProt O14980) yielded a thermal stability z-score of 1.4. RPLP0 (UniProt P05388) gave a thermal stability z-score of -0.4. In the case of TUT1 (UniProt Q9H6E5), the thermal stability z-score is reported as -0.479. With PSME2 (UniProt Q9UL46) the thermal stability z-score was 0.951. For STX4 (UniProt Q12846), the thermal stability z-score was -0.199. In the case of OCIAD2 (UniProt Q56VL3), the thermal stability z-score is reported as 0.549. TMEM223 (UniProt A0PJW6) showed a thermal stability z-score of 1.09. GSS (UniProt P48637) was tested, and the thermal stability z-score was -0.183. HIP1 (UniProt O00291) was tested, and the thermal stability z-score was 0.215. For TMED9 (UniProt Q9BVK6), the thermal stability z-score was 0.151. RHOG (UniProt P84095) was tested, and the thermal stability z-score was 0.00682. With PLS3 (UniProt P13797) the thermal stability z-score was -0.117. For DLAT (UniProt P10515), the thermal stability z-score was -11.2. Work on SUCLG2 (UniProt Q96I99) yielded a thermal stability z-score of 0.106. HMGN5 (UniProt P82970) showed a thermal stability z-score of -0.172. DHRS1 (UniProt Q96LJ7) showed a thermal stability z-score of 0.812. With NUDT4 (UniProt Q9NZJ9) the thermal stability z-score was -0.881. In the case of THUMPD2 (UniProt Q9BTF0), the thermal stability z-score is reported as 0.0998. Target AHCYL2 (UniProt Q96HN2) has a thermal stability z-score of -1.74. For LACTB2 (UniProt Q53H82), the thermal stability z-score was -0.335. Work on FBXO45 (UniProt P0C2W1) yielded a thermal stability z-score of 0.229. Target MTX2 (UniProt O75431) has a thermal stability z-score of 0.0221. SEC62 (UniProt Q99442) was tested, and the thermal stability z-score was -0.75. SLC25A6 (UniProt P12236) was tested, and the thermal stability z-score was 0.433. With MGAT2 (UniProt Q10469) the thermal stability z-score was 0.24. Work on EML3 (UniProt Q32P44) yielded a thermal stability z-score of -0.524. In the case of MAMLD1 (UniProt Q13495), the thermal stability z-score is reported as 0.345.

What follows are targets tested with NC(=O)CCCCC1CCSS1 [lipoamide] in the same assay as above. Conditions: HeLa; lipoamide concentration 100 µM; arsenate co-treatment: 1 mM arsenate 1 h.
Experimental: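 Cellular thermal proteome profiling in HeLa cells. Cells were treated with 100 µM lipoamide for 1 h, with or without 1 mM arsenate for a further 1 h, then heated to ten temperatures (37-66.3 °C), and soluble protein was quantified by TMT mass spectrometry relative to 0.1% DMSO controls. The thermal stability score (sum of log2 fold changes minus the abundance score) was transformed to a z-score; mean of n = 3 experiments.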
LAMB2 (UniProt P55268) gave a thermal stability z-score of -1.69. PSMB4 (UniProt P28070) was tested, and the thermal stability z-score was 0.411. EIF3M (UniProt Q7L2H7) showed a thermal stability z-score of 0.136. DYNLRB1 (UniProt Q9NP97) was tested, and the thermal stability z-score was -0.37. NUFIP2 (UniProt Q7Z417) was tested, and the thermal stability z-score was 0.354. In the case of PPM1L (UniProt Q5SGD2), the thermal stability z-score is reported as -0.022. With RRM2B (UniProt Q7LG56) the thermal stability z-score was 0.945. SMG5 (UniProt Q9UPR3) was tested, and the thermal stability z-score was -0.0554. SLC19A1 (UniProt P41440) was tested, and the thermal stability z-score was -0.381. GPN1 (UniProt Q9HCN4) gave a thermal stability z-score of -0.0201. With VPS16 (UniProt Q9H269) the thermal stability z-score was -0.305. THG1L (UniProt Q9NWX6) showed a thermal stability z-score of 0.578. TMEM131 (UniProt Q92545) showed a thermal stability z-score of -1.03. PHF14 (UniProt O94880) showed a thermal stability z-score of -0.247. For PLXNA1 (UniProt Q9UIW2), the thermal stability z-score was 0.316. Work on DPH5 (UniProt Q9H2P9) yielded a thermal stability z-score of 0.634. H1FX (UniProt Q92522) gave a thermal stability z-score of -0.468. With DXO (UniProt O77932) the thermal stability z-score was 0.186. In the case of FERMT2 (UniProt Q96AC1), the thermal stability z-score is reported as 0.0975. With WDR77 (UniProt Q9BQA1) the thermal stability z-score was -0.484. METTL21A (UniProt Q8WXB1) showed a thermal stability z-score of 0.425. TRAPPC6B (UniProt Q86SZ2) gave a thermal stability z-score of -0.428. Work on HFE (UniProt Q30201) yielded a thermal stability z-score of -0.0165. PARP12 (UniProt Q9H0J9) gave a thermal stability z-score of 0.0419. LLPH (UniProt Q9BRT6) showed a thermal stability z-score of -1.21. TTK (UniProt P33981) was tested, and the thermal stability z-score was -0.85. DNAJC3 (UniProt Q13217) showed a thermal stability z-score of -4.01. For IRF2BPL (UniProt Q9H1B7), the thermal stability z-score was 0.0789. For WWTR1 (UniProt Q9GZV5), the thermal stability z-score was -0.0845. CASP1 (UniProt P29466) was tested, and the thermal stability z-score was -1.23. For MAD1L1 (UniProt Q9Y6D9), the thermal stability z-score was 2.13. Target HDAC7 (UniProt Q8WUI4) has a thermal stability z-score of 0.158. KATNAL1 (UniProt Q9BW62) was tested, and the thermal stability z-score was 0.798. With NAGK (UniProt Q9UJ70) the thermal stability z-score was 0.0756. Target PDIA3 (UniProt P30101) has a thermal stability z-score of -3.75.
